From patent US10106625B2, “Pharmaceutical compositions with enhanced performance and improved processability” (HERCULES INCORPORATED, priority 2013, dated 2018)
Like-named read-outs stand apart in the source and are kept apart here.

Tests used:
[1] = Kinetic solubility of spray dried dispersion with Ezetimibe in FaSSIF; type: physicochemical
Protocol: Hg reduced pressure for 24 hours.

[2] = 120 min
Protocol: Dissolution was performed using a pDISS Profiler™ (available from Pion Inc., MA, USA). Each spray-dried powder was weighed so that the volume adjusted equivalent of the typical daily dose of the drug was added to each vial and compensation was made for the drug load of the samples. For example, the target API was 9.5 mg for Felpdipine in 20 ml of FaSSIF. The spray dried sample containing 9.5 mg API of Felpdipine was weighed. For Ezetimibe, the spray dried sample containing 10 mg API was weighed. The weighed spray dried samples were added to 20 ml of FaSSIF in vials and then heated to 37° C. The vials were maintained at a constant stirring speed of 300 RPM. Dissolution measurements were taken by in situ fiber optic probes at various time points and these measurements were analyzed at the appropriate wavelength for dissolved API concentration. Based on the in situ measurement data, various solubility parameters were calculated.

[3] = cited from earlier work

O=C1[C@H](CC[C@H](O)c2ccc(F)cc2)[C@@H](c2ccc(O)cc2)N1c1ccc(F)cc1 [Ezetimibe API, Ezetimibe]
C120 ([1]; Ezetimibe SDD, 60% drug load, API concentration at 120 minutes): 14 µg/mL
AUC120 ([1]; Ezetimibe SDD, 60% drug load, FaSSIF 37° C., API concentration over first 120 minutes): 1,626 μg * min/mL
AUC(Rel) ([1]; Ezetimibe, ratio of AUC120 of polymer/drug dispersion versus API alone): 1.0

CCOC(=O)C1=C(C)NC(C)=C(C(=O)OC)C1c1cccc(Cl)c1Cl (centres unmarked) [Felodipine API, Felodipine]
C120 [2]: 28 µg/mL

CCOC(=O)N1c2ccc(C(F)(F)F)cc2[C@@H](N(Cc2cc(C(F)(F)F)cc(C(F)(F)F)c2)C(=O)OC)C[C@H]1CC [torcetrapib]
aqueous solubility [3]: less than 0.04 μg/ml
